Test in all cases: growth of human tumour cells (NCI), 48 h
Assay [1] deals with UACC-257 melanoma.
Assay [2] relates to OVCAR-8 ovarian.
The subject of assay [3] is M14 melanoma.
Assay [4] has as its system NCI-H460 lung.
The subject of assay [5] is PC-3 prostate.
Assay [6] concerns A549 NSCLC.
In assay [7] the test system is DU-145 prostate.
Assay [8] concerns EKVX NSCLC.
In assay [9] the test system is OVCAR-5 ovarian.

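Five compound concentrations were applied to cells in 96-well plates for 48 hours; endpoints were derived by simple linear interpolation of the resulting dose-response curve. TGI: total growth inhibition.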 Bounds are passed on as bounds.

Turning to `NC(N)=NS(=O)(=O)c1ccc(NC(=O)c2ccc3[nH]c4ccccc4c(=O)c3c2)cc1`, the TGI in [1], in assay [2], in assay [3], in assay [4], in [5] and in assay [6] was greater than 100 µM throughout. Moreover, the TGI in assay [7], in assay [8] and in assay [9] was greater than 100 µM throughout.
In the case of `C=CCn1cnc2c(=O)[nH]c(Nc3ccccc3)nc21`, the TGI in assay [1], in [2], in assay [3], in assay [4], in [5] and in [6] was greater than 100 µM throughout. Besides, the TGI in assay [7], in assay [8] and in assay [9] was greater than 100 µM in each case.
`COCCOCCOCCOc1ccc(C(C#N)N(CCc2ccccc2)C(=O)c2cc(C(=O)N(CCc3ccccc3)C(C#N)c3ccc(OCCOCCOCCOC)cc3)cc(C(=O)N(CCc3ccccc3)C(C#N)c3ccc(OCCOCCOCCOC)cc3)c2)cc1` (stereo unspecified): the TGI in assay [1], in assay [2], in assay [3], in assay [4], in assay [5] and in [6] was greater than 100 µM throughout. The TGI in [7], in assay [8] and in assay [9] was greater than 100 µM each time.
For the compound `O=S(=O)(OI(O)CC(F)(F)F)C(F)(F)F`, the TGI in assay [1], in [2], in [3], in assay [4], in assay [5] and in [6] was greater than 100 µM in each case. Besides, the TGI in [7], in assay [8] and in [9] was greater than 100 µM each time.
As to `CC(=O)Oc1c(C)c2c(c3ccccc13)OC(C)(C)C2`, the TGI in assay [1] was 24.6 µM; in assay [2], 32.5 µM; in assay [3], 30.9 µM; in assay [4], 34.2 µM; in [5] it was 47.2 µM; in [6], 33.9 µM. The TGI in [7] was found to be 31 µM; in assay [8] it was 34 µM; in assay [9] it was 34.4 µM.
As for `NC(=O)C(Nc1ccc(Cl)cc1)c1cc2cc(Br)ccc2nc1Cl` (stereo unspecified), the TGI in assay [1], in assay [2], in [3], in [4], in assay [5] and in assay [6] was greater than 50 µM each time. The TGI in assay [7], in assay [8] and in [9] was greater than 50 µM throughout.
Consider `CCN(CC)COC(=S)S`, for which the TGI in assay [1] is greater than 76.3 µM; in [2] it was greater than 100 µM; in assay [3], greater than 100 µM; in assay [4], greater than 100 µM; in [5] it was greater than 100 µM; in assay [6], greater than 100 µM. For the same compound, the TGI in assay [7], in [8] and in [9] was greater than 100 µM each time.
As to `COC(=O)c1c(C(=O)OC)c2c3ccccc3n(C)c2c2c1c1ccccc1n2C`, the TGI in [1], in assay [2], in assay [3], in [4], in assay [5] and in [6] was greater than 100 µM in each case. Besides, the TGI in assay [7], in assay [8] and in [9] was greater than 100 µM throughout.
For `Oc1ccc(-c2cn3cc(C(F)(F)F)ccc3n2)cc1`, the TGI in assay [1], in assay [2], in [3], in assay [4], in assay [5] and in assay [6] was greater than 100 µM each time. For the same compound, the TGI in [7], in assay [8] and in assay [9] was greater than 100 µM throughout.
With `CN(C)Cc1cc(N=Nc2ccc(Cl)cc2)ccc1O`, the TGI in [1] came out at 32.7 µM; in [2] it was 30.6 µM; in assay [3], 53.1 µM; in assay [4], 26.7 µM; in [5] it was 30.3 µM; in assay [6], 29.4 µM. The TGI in assay [7] was found to be 48.1 µM; in assay [8] it was 33.8 µM; in [9], 26.3 µM.
For the compound `CC1OC(O[C@H]2CC[C@]3(C=O)[C@H]4CC[C@]5(C)[C@H](C6=CC(=O)OC6)CC[C@]5(O)[C@@H]4C=C[C@]3(O)C2)CC(O)C1O` (stereo partly specified), the TGI was 1.82 µM in [1]; 0.754 µM in assay [2]; 0.761 µM in [3]; 0.423 µM in assay [4]; 0.657 µM in assay [5]; 0.378 µM in assay [6]. For the same compound, the TGI was 0.442 µM in assay [7], 0.611 µM in assay [8] and 1.42 µM in assay [9].
On to `COc1ccccc1NC(=S)Nc1cc(C)ccn1`, for which the TGI in [1], in [2], in assay [3], in [4], in assay [5] and in assay [6] was greater than 100 µM each time. The TGI in assay [7], in assay [8] and in [9] was greater than 100 µM in each case.
`COc1ccc2nc3n(c2c1)C(c1c(Cl)cccc1Cl)SC3` (stereo unspecified): the TGI in [1], in assay [2], in assay [3], in assay [4], in assay [5] and in assay [6] was greater than 100 µM each time. Moreover, the TGI in assay [7], in assay [8] and in assay [9] was greater than 100 µM each time.
As for `O=C1C(Cl)=C(N2CCN(c3ccccn3)CC2)C(=O)c2ncccc21`, the TGI was found to be 3.24 µM in [1]; 2.77 µM in assay [2]; 3 µM in [3]; 13.4 µM in [4]; 7.52 µM in [5]; 19.5 µM in [6]. For the same compound, the TGI in [7] was found to be 24.1 µM; in assay [8] it was 24.4 µM; in assay [9], 21.8 µM.
Take `COc1cc(C23OCC(Cc4cc5c(cc42)OCO5)C3CO)cc(OC)c1OC` (stereo unspecified): the TGI in [1], in [2], in assay [3], in [4], in assay [5] and in assay [6] was greater than 100 µM each time. Further, the TGI in assay [7], in [8] and in assay [9] was greater than 100 µM each time.
Turning to `CN(C)c1ccc(C2ON=C(c3ccccc3)N2C23CC4CC(CC(C4)C2)C3)cc1` (stereo unspecified), the TGI in [1], in [2], in assay [3], in assay [4], in [5] and in assay [6] was greater than 10 µM each time. Further, the TGI in [7], in assay [8] and in assay [9] was greater than 10 µM throughout.
`O=[N+]([O-])c1cccc2nc3ccccc3c(NCCCN3CCCCC3)c12`: the TGI in assay [1] is 0.0446 µM; in assay [2] it was 0.118 µM; in assay [3], 0.0232 µM; in [4] it was less than 0.0134 µM; in assay [5] it was 0.0305 µM; in assay [6], 0.115 µM. Besides, the TGI in [7] worked out at 0.0295 µM; in assay [8], 0.0401 µM; in assay [9], 0.0669 µM.
As to `CCC(=O)NCCc1c2c3c(ccnc3c3ncsc13)-c1ccccc1N2`, the TGI in [1] was greater than 94.9 µM; in assay [2], greater than 71.1 µM; in assay [3], greater than 100 µM; in assay [4], 29.1 µM; in [5] it was greater than 100 µM; in assay [6] it was greater than 53.1 µM. Also, the TGI in assay [7], in assay [8] and in assay [9] was greater than 100 µM each time.
Take `CC(Oc1ccccc1Cl)C(=O)NN1C(=O)CSC1c1ccc(Cl)cc1` (stereo unspecified): the TGI in [1] came to 45.1 µM; in assay [2], 56.5 µM; in assay [3], 34.5 µM; in [4], 59.8 µM; in [5], 38.2 µM; in assay [6], 41 µM. For the same compound, the TGI in assay [7] was found to be 37.6 µM; in assay [8] it was 71.6 µM; in [9], 48 µM.
For `COC(=O)[C@@H]1Cc2cc(O)c(O)cc2C2(CCN(C)CC2)O1`, the TGI in assay [1], in [2], in [3], in [4], in [5] and in [6] was greater than 10 µM in each case. Further, the TGI in assay [7], in assay [8] and in assay [9] was greater than 10 µM in each case.
In the case of `NC(N)=NC(N)=Nc1ccccc1` (tested in a mixture with another compound), the TGI in [1], in assay [2], in assay [3], in [4], in assay [5] and in assay [6] was greater than 100 µM in each case. The TGI in assay [7], in [8] and in [9] was greater than 100 µM each time.
Regarding `CN(C)CCCNC(=O)c1cc(NC(=O)c2cc(NC(=O)[C@@H]3C[C@H]3C(=O)Nc3cc(C(=O)Nc4cc(C(=O)NCCCN(C)C)n(C)c4)n(C)c3)cn2C)cn1C`, the TGI in [1], in assay [2], in assay [3], in assay [4], in [5] and in assay [6] was greater than 100 µM in each case. Moreover, the TGI in [7], in assay [8] and in [9] was greater than 100 µM in each case.
As to `O=c1[nH]c(=O)n(C/C=C/CBr)nc1Br`, the TGI in assay [1] amounted to 24.9 µM; in assay [2] it was 29.9 µM; in [3], 27.6 µM; in [4], 37 µM; in assay [5], 24.6 µM; in [6], 30.8 µM. Also, the figures for the TGI in [7], in [8] and in [9] were greater than 100 µM, 28.8 µM and 31.1 µM, respectively.
As to `COc1ncnc2c1cnn2Cc1cn(CCCCO)nn1`, the TGI in assay [1], in assay [2], in [3], in [4], in assay [5] and in assay [6] was greater than 100 µM in each case. In addition, the TGI in assay [7], in assay [8] and in [9] was greater than 100 µM throughout.
Regarding `COc1ccc(Nc2nc3ccccc3nc2C(=O)O)cc1OC`, the TGI in assay [1], in assay [2], in assay [3], in [4], in assay [5] and in assay [6] was greater than 100 µM each time. The TGI in assay [7], in assay [8] and in assay [9] was greater than 100 µM each time.
With `Oc1cc(CN2COc3ccccc32)c(O)cc1CNC1CCCCC1`, the TGI in [1] is 30.6 µM; in assay [2] it was 57.5 µM; in assay [3], greater than 100 µM; in assay [4], 32.3 µM; in [5] it was 42 µM; in [6] it was greater than 100 µM. In addition, the results for the TGI in [7], in [8] and in assay [9] were greater than 100 µM, 36.3 µM and greater than 100 µM, respectively.
With `CC1=CC(C)(C)Nc2ccc(CSc3ccccc3)cc21`, the TGI in assay [1] was 59.3 µM; in assay [2], greater than 100 µM; in assay [3], 65.2 µM; in [4], 67.4 µM; in [5] it was 89.8 µM; in assay [6], 51.4 µM. For the same compound, the TGI in assay [7] came out at 71.5 µM; in assay [8], 59.9 µM; in assay [9] it was 40.4 µM.
Consider `O=C(CN(c1ccc(S(=O)(=O)O)cc1)c1ccc(S(=O)(=O)O)cc1)Nn1cnc2ccc(S(=O)(=O)N(c3ccc(S(=O)(=O)O)cc3)c3ccc(S(=O)(=O)O)cc3)cc2c1=O`, for which the TGI in assay [1], in assay [2], in assay [3], in [4], in assay [5] and in assay [6] was greater than 100 µM throughout. The TGI in assay [7], in assay [8] and in assay [9] was greater than 100 µM each time.
For `BrCC(Br)(c1ccccc1)c1ccccc1-c1cc(-c2ccccc2)cc(-c2ccccc2)n1` (stereo unspecified), the TGI in [1] stood at 8.92 µM; in assay [2], 16.7 µM; in [3], 21.6 µM; in [4], 11.9 µM; in assay [5], 10.6 µM; in [6], 25.5 µM. The TGI in [7] is greater than 45.5 µM; in assay [8], greater than 100 µM; in assay [9] it was 8.35 µM.

Source of the values: PubChem BioAssay (NCI).
